Data on 6 compounds can be found in patent US4101662A, “Method for inhibiting emesis and compositions therefor” (priority 1973, dated 1978).

The subject of the experiment is emetic effect of apomorphine. The experiment can be described thus: Antiemetic activity (IM) against apomorphine-induced emesis in unanesthetized dogs, ED50. Format: in vivo. As to conditions: for ED50: Canis lupus familiaris. The method, then: Description of this invention will therefore be made with especial emphasis on 4-(p-fluorobenzoyl)-1-[3-(p-fluorobenzoyl)propyl]piperidine hydrochloride, it being understood that the principles and practices involved are applicable to the other compounds of the formula first hereinabove set forth. The antiemetic activity of the compounds was determined by the following standard pharmacological tests.
The compounds were administered intramuscularly (IM) to unanesthetized dogs in the caudal muscles (left hind leg) and thirty minutes later they received apomorphine hydrochloride (0.1 mg./kg. s.c.). The compounds were administered in micrograms (mcg.) at several dose levels and the percent reduction in frequency of emesis relative to controls determined. From the data the ED50 in micrograms was determined.

[1] abbreviates: IM, unanesthetized dogs, 30 minutes before apomorphine hydrochloride 0.1 mg/kg s.c., reduction in frequency of emesis relative to controls, read-out: ED50 and 95% Confidence Limits.

Counter-ions that a name gives are not always drawn. Like-named read-outs stand apart in the source and are kept apart here.

For `O=C(CCCN1CCC(C(=O)c2ccc(F)cc2)CC1)c1ccc(F)cc1` [Example 1, 4-(p-Fluorobenzoyl)-1-[3-(p-fluorobenzoyl)propyl]piperidine Hydrochloride], the ED50 under setting [1] came out at 0.0083 mg/kg.

`O=C(CCCN1CCC(C(=O)c2ccc(F)cc2)CC1)c1ccc(Cl)cc1` [Example 2, 4-(p-Fluorobenzoyl)-1-[3-(p-chlorobenzoyl)propyl]piperidine Hydrochloride]: the ED50 under setting [1] was found to be 0.06 mg/kg.

Consider `O=C(CCCN1CCC(C(=O)c2ccc(Cl)cc2)CC1)c1ccc(F)cc1` [Example 3, 4-(p-Chlorobenzoyl)-1-[3-(p-fluorobenzoyl)propyl]piperidine Hydrochloride], for which the 50% effective dose (ED50) under setting [1] came out at 0.077 mg/kg.

Take `O=C(CCCN1CCC(C(=O)c2ccc(Cl)cc2)CC1)c1ccc(Cl)cc1` [Example 4, 4-(p-chlorobenzoyl)-1-[3-(p-chlorobenzoyl)propyl]piperidine Hydrochloride]: the “ED50 and 95% Confidence Limits (Estimated Values)” value (IM, unanesthetized dogs, 30 minutes before apomorphine hydrochloride 0.1 mg/kg s.c., footnote a: estimated values) is listed as ~1401.0 (796-2468) mcg/kg.

In the case of `O=C(CCCN1CCC(C(O)c2ccc(F)cc2)CC1)c1ccc(F)cc1` (stereo not drawn) [Example 9, 4-(p-Fluoro-α-hydroxybenzyl)-1-[3-(p-fluorobenzoyl)propyl]piperidine], the ED50 (im, read-out: ED50 and 95% Confidence Limits) was 0.132 mg/kg.

For `OC(CCCN1CCC(C(O)c2ccc(F)cc2)CC1)c1ccc(F)cc1` (stereo not drawn) [Example 10, 4-(p-Fluoro-α-hydroxybenzyl)-1-[3-(p-fluoro-α-hydroxy)propyl]piperidine], the ED50 (IM, unanesthetized dogs, 30 minutes before apomorphine hydrochloride 0.1 mg/kg s.c., footnote b: graphic estimate, vehicle 80% polyethylene glycol 300 and 20% water, read-out: ED50 (value obtained from a graphic estimate)) was about 1 mg/kg.

What is called ED50 is the dose at which the effect has come halfway, by size or by number of responders.
